Measurements reported in paper PMC6385020 (Molecules, 2019).
Several values for one entry are separate records, joined by “and”; a condition that tells them apart may be missing. Equal values may be shown once. Entries after “also recorded” stand apart in the source; their conditions may differ. Read-outs that look alike come from different tables or passages of the source.

Tests used:
[1] = tested on: CEB25-WT minisatellite sequence G4; test: PhenDV G4-FID assay; format: binding; conditions: PhenDV 1.5 eq, K+100 buffer
Protocol: (§1) For the G4-FID assay, the oligonucleotides were dissolved in K^+100 buffer (10 mM lithium cacodylate buffer pH 7.3, 100 mM KCl, 1% DMSO). Oligonucleotide concentrations were determined on the basis of their absorbance at 260 nm. For the fluorimetric titration, the oligonucleotides were dissolved in K^+100 buffer without DMSO. For the FRET-melting assay, the oligonucleotides were dissolved in K^+1 buffer (10 mM lithium cacodylate buffer pH 7.3, 1 mM KCl, 99 mM LiCl) except for F-21-T. F-21-T was dissolved in K^+10 buffer (10 mM lithium cacodylate buffer pH 7.3, 10 mM KCl, 90 mM LiCl).
(§2) Prior to use, all oligonucleotides were pretreated by heating at 95 °C for 5 min, then rapidly cooled to 4 °C to favor the intramolecular folding by kinetic trapping. Duplex-DNA ds26 was prepared by heating the self-complementary strand at 90 °C for 5 min in K^+1 buffer followed by a slow cooling over 6 h.
(§3) Each G4-FID assay was performed in a 96-well Non-Binding Surface black with black bottom polystyrene microplates (Corning). Every ligand was tested on a line of the microplate, in duplicate. The microplate was filled with (a) K^+100 solution (qs for 200 μL), (b) 10 μL of a solution of pre-folded oligonucleotides (5 μM) and fluorescent probe (TO/TO-PRO-3 (10 μM—2 eq) or PhenDV (7,5 µM—1.5 eq)), and (c) an extemporaneously prepared 5 μM ligand solution in K^+100 buffer (0 to 100 μL) along the line of the microplate, i.e., from column A to column H: 0, 0.125, 0.25, 0.375, 0.5, 0.625, 0.75, 1.0, 1.25, 1.5, 2.0, and 2.5 μM. After 5 min of orbital shaking at 500 rpm, fluorescence is measured using the following experimental parameters: positioning delay of 0.5 s, 20 flashes per well, emission/excitation filters for TO at 485/520, TO-PRO-3 at 620/670, and PhenDV at 355/520 gain adjusted at 80% of the fluorescence from the most fluorescent well (i.e., a well from column A for TO and a well from column H).
(§4) In the case of PhenDV, the fluorescence of the unbound probe is not negligible. The percentage of displacement becomes (2) % PhenDV Displacement=F−F0/Fligand+probe−F0
(§5) The PhenDV displacement is calculated from the fluorescence intensity F; F(ligand+probe), which refers to the fluorescence of the probe in presence of the ligand (without G4); and F0, which is the fluorescence without added ligand. The term F(ligand+probe) is necessary as the ligand can quench the fluorescence of the probe. The percentage of displacement is then plotted as a function of the concentration of the added ligand. The DNA affinity was evaluated by the concentration of ligand required to decrease the fluorescence of the probe by 50%, was noted DC50, and was determined after non-linear fitting of the displacement curve.

[2] = tested on: 22AG human telomeric sequence G4; test: PhenDV G4-FID assay; format: binding; conditions: PhenDV 1.5 eq, K+100 buffer
Protocol: as §1, §2, §3, §4, §5

c-myc G4 [3] = test: PhenDV G4-FID assay; format: binding; conditions: PhenDV 1.5 eq, K+100 buffer
Protocol: as §1, §2, §3, §4, §5

[4] = tested on: G4-DNA structures (F-21-T, F-myc-T, F-21CTA-T, F-CEB25-WT-T); test: FRET-melting assay (ligand-induced stabilization); format: binding, human
Protocol: as §1, §2
The stabilization of the compounds with a quadruplex-structure was monitored via FRET-melting assay performed in 96-well plates on a real-time PCR apparatus 7900HT Fast Real-Time PCR System as follows: 5 min at 25 °C and then an increase of 0.5 °C every minute until 95 °C. Each experimental condition was tested and replicated in a volume of 25 μL for each sample. The FRET-melting assay was performed with three dual fluorescently labeled DNA oligonucleotide sequences oligonucleotides. The donor fluorophore was 6-carboxyfluorescein, FAM, and the acceptor fluorophore was 6-carboxytetramethylrhodamine, TAMRA. The 96-well plates (Applied Biosystems) were prepared by aliquoting the annealed DNA (0.2 μM in K^+1 or K^+10 buffer) into each well, followed by 1 μL of the ligand ([…] (5 eq) in DMSO). For competition experiments, duplex competitors were added to 200 nM quadruplex sequences at final concentrations of 3.0 μM (15 eq) and 10.0 μM (50 eq), with a total reaction volume of 25 μL, with the labeled oligonucleotide (0.2 μM) and the ligand (1 μM). Measurements were made with excitation at 492 nm and detection at 516 nm. The change in the melting temperature at 1.0 μm compound concentration, ΔTm (1.0 μM), was calculated from at least two experiments by subtraction of the blank from the averaged melting temperature of each compound (1.0 μM). The final analysis of the data was carried out using Origin Pro 8.6 data analysis.

[5] = tested on: 21CTA human telomeric sequence variant G4; format: binding; conditions: PhenDV 1.5 eq, K+100 buffer
Protocol: as §1, §2, §3, §4, §5

[6] = tested on: G4 structures (22AG, c-myc, 21CTA, CEB25-WT); test: TO-PRO-3-G4-FID assay, G4 structures; format: binding
Protocol: as §1, §2, §3
(§6) The percentage of TO displacement is calculated from the fluorescence intensity (F), using (1) % TO displacement=1−F/F0 where F0 is the fluorescence from the fluorescent probe bound to DNA without added ligand.
as §5

[7] = tested on: CEB25-WT minisatellite sequence G4; test: TO G4-FID assay; format: binding; conditions: TO 2 eq, K+100 buffer
Protocol: as §1, §2, §3, §6, §5

[8] = tested on: 22AG human telomeric sequence G4; test: TO G4-FID assay; format: binding; conditions: TO 2 eq, K+100 buffer
Protocol: as §1, §2, §3, §6, §5

c-myc G4 [9] = test: TO G4-FID assay; format: binding; conditions: TO 2 eq, K+100 buffer
Protocol: as §1, §2, §3, §6, §5

[10] = tested on: A2780 ovarian cancer cell line; test: Cell growth (proliferation), 96 h treatment; format: cell-based, human; conditions: for IC50: A2780, 96 h treatment
Protocol: (§7) The ovarian carcinoma cell lines and human normal lung cells were purchased from ATCC and were grown in complete RPMI medium (ovarian) and DMEM (human lung cells) supplemented with 10% fetal calf serum, in the presence of penicillin, streptomycin. The resistance of A2780cis cells to cisplatin was maintained by monthly treatment with 1 µM cisplatin for 4 days. Concentrated stock solutions of complexes were conserved at −20 °C (DMSO/Water) and freshly diluted in water just before the experiments. Cells were treated with various concentrations of platinum complexes at 37 °C under humidity and 5% CO2 conditions for 96 h. Cellular growth was quantified using the particle counter MOXI (VWR).

[11] = tested on: A2780cis cisplatin-resistant ovarian cancer cell line; test: Cell growth (proliferation), 96 h treatment; format: cell-based, human
Protocol: as §7

[12] = tested on: CCD19Lu normal lung cell line; test: Cell growth (proliferation), 96 h treatment; format: cell-based, human
Protocol: as §7

[13] = tested on: 21CTA human telomeric sequence variant G4; format: binding; conditions: K+100 buffer
Protocol: as §1, §2, §3, §6, §5

[14] = tested on: all the tested G4s structures; set-up: method as in PMID 21528379; conditions: cited from earlier work
c-myc G4 [15] = tested on: c-myc G4; set-up: method as in PMID 21528379; conditions: cited from earlier work
22AG G4 = tested on: 22AG G4; set-up: method as in PMID 28825434; conditions: K+100 buffer, 20 °C; cited from earlier work
21CTA G4 = tested on: 21CTA G4; set-up: method as in PMID 21528379; conditions: cited from earlier work

Compound: F[P-](F)(F)(F)(F)F.[Pt+][C]#Cc1ccccc1.c1ccc(-c2cccc(-c3ccccn3)n2)nc1 [Pt(PA)-tpy, Phenylethylny-(2,6-bis(pyridin-2-yl)pyridine)-platinum(II) Hexafluorophosphate]
- % of PhenDV displacement at 1 µM of ligand [1]: 13%
- % of PhenDV displacement at 1 µM of ligand [2]: 20%
- % of PhenDV displacement at 1 µM of ligand (c-myc G4 [3]): 2%
- ∆Tm (ligand-induced stabilization, FRET-melting) [4]: complete lack of stabilization properties; also recorded: no stabilization
- % of PhenDV displacement at 1 µM of ligand [5]: 34%
- TO-PRO-3 displacement [6]: weak displacement
- % of TO displacement at 1 µM of ligand [7]: 37%
- % of TO displacement at 1 µM of ligand [8]: 55%
- % of TO displacement at 1 µM of ligand (c-myc G4 [9]): 59%
- IC50 [10]: 80 nM
- IC50 in words ([10]; A2780 cell lines): active at nM concentration
- IC50 [11]: 50 nM
- Resistance Factor (IC50ratio A2780cis/A2780) [11]: 0.6
- IC50 [12]: 120 nM
- % of TO displacement at 1 µM of ligand ([13]; TO 2 eq): 52%
- % of TOPRO3 displacement at 1 µM of ligand ([13]; TO-PRO-3 2 eq): 3%

Compound: CN1C(=Cc2cc[n+](C)c3ccccc23)Sc2ccccc21 [TO, Thiazole Orange]
- affinity constants towards all the tested G4s structures (Ka) [14]: ~ 10^6 M^−1
- KA (c-myc G4 [15]): 5 × 10^6 M^−1 and 5 × 10^6 (b) M^−1
- KA (22AG G4): 1 × 10^6 (a) M^−1
- KA (21CTA G4): 1 × 10^6 (b) M^−1

Compound: CN1/C(=C/C=C/c2cc[n+](CCC[N+](C)(C)C)c3ccccc23)Sc2ccccc21.[I-].[I-] [TO-PRO-3]
- affinity constants towards all the tested G4s structures (Ka) [14]: ~ 10^6 M^−1

Compound: N.N.[Cl][Pt][Cl] [cisplatin, reference compound]
- IC50 [10]: 330 nM
- Resistance Factor (IC50ratio A2780cis/A2780) ([11]; 96 h treatment): 9.1
- IC50 ([11]; A2780cis, 96 h treatment): 3000 nM
- IC50 [12]: 200 nM
